{"source": "patent US5945450A", "about": "“Naphthalene derivative” (Teijin Limited, priority 1994, dated 1999)", "key": {"IgG1": {"tested_on": "IgG1", "experiment": "In vivo inhibition of IgG1 production in TNP-KLH immunized mice", "parameters": "species or system BDF1 mice", "settings": "100 mg/kg/day subcutaneously, twice a day for 10 days, N=10", "experimental": "(§1) TNP-KLH (trinitrophenyl-keyhole-lymphet-hemocyanin) was prepared by the method as described in J. Immunol., 97:421-430, 1966 from KLH and trinitrobenzene sulfonic acid. A […] of TNP-KLH suspended in 0.2 ml of saline and 1 mg of aluminum hydroxide gel were injected into the peritoneal cavity of BDF1 mice (8 weeks old) for immunization. From the day of immunization onward, the compound of this invention listed in Table 5 was given subcutaneously to the same animal twice a day for 10 days (100 mg/kg/day, dissolved in 0.5% Tween 80 in saline, and N=10). To the control group, 0.5% Tween 80 in saline was given at the same time schedule (N=10). Ten days after immunization, blood was extracted from the heart, and the concentrations of IgE, IgG1 and IgM antibodies were determined by ELISA (Immunol. Lett., 23:251-256, 1990, and Eur. J. Immunol., 20:2499-2503, 1990). Inhibition (%) of the antibody production with respect to the control was calculated."}, "human basophils": {"tested_on": "human basophils", "experiment": "Inhibition of histamine release from human basophils", "type": "cell-based", "parameters": "dose or concentration left out as unconfirmed", "experimental": "To human heparinized peripheral blood was added 1/10 volume of 6% Dextran 500 in saline, and the mixture was allowed to stand at room temperature for 1 hour, to isolate a plasma layer containing leukocytes. The leukocytes were separated by centrifugation, washed with PIPE-A (119 mM NaCl, 5 mM KCl, 25 mM PIPES, 40 mM NaOH, 5.6 mM glucose, and 0.03% human serum albumin), and suspended in PIPES-ACM (PIPES A, 1 mM CaCl2 and 0.4 mM MgCl2) to give a cell suspension of a density of 4×10^6 cells /ml. To this cell suspension was added the compound of this invention listed in Table 7 as a test drug (0.1 M solution of the compound in DMSO was diluted with PIPES-ACM to give a […]), or the cell suspension was left untouched. After 30 second, calcium ionophore A23187 ([…]) was added. The reaction was allowed to proceed at 37 for 45 minutes. The resulting mixture was centrifuged to isolate a supernatant. Histamine release in the supernatant was determined by the fluorescent method. Inhibitory effect (%) of a given compound of this invention on histamine release was calculated relative to the histamine release when the compound was not coexistent(refer to Allergy, 37:313-321, 1988)."}, "IgE": {"tested_on": "IgE", "experiment": "In vivo inhibition of IgE production in TNP-KLH immunized mice", "parameters": "species or system BDF1 mice", "settings": "100 mg/kg/day subcutaneously, twice a day for 10 days, N=10", "experimental": "as §1"}, "human IgE antibodies": {"tested_on": "human IgE antibodies", "experiment": "In vitro inhibition of the production of human IgE antibodies (lymphocytes + IL-4 + anti CD40Ab + IL-10, ELISA)", "type": "cell-based", "settings": "Lymphocyte, read-out: Inhibition of antibody production (%) IgE", "experimental": "(§2) According to the method described in J. Immunol., 146:1836-1842, 1991 and J. Immunol., 147:8-13, 1991, the concentrations of IgE and IgG antibodies were measured by the procedures described below.\n(§3) Peripheral venous blood was sampled from the healthy person, and submitted to density-gradient centrifugation to isolate lymphocytes. The lymphocytes thus obtained were washed and suspended in a culture medium (RPMI-1640 (provided by Gibco)+10% heat-inactivated FCS (Whittaker)+100 µg/ml streptomycin+100 U/ml penicillin+2mM L-glutamine). The cell suspensions were cultured for 1 week in the presence/absence of the compounds of this invention at the concentrations as described in Tables 3-1 to 3-2 together with human interleukin 4 (IL-4, Genzyme)([…]), anti CD40 antibodies (anti CD40Ab, Biosource, clone B-B20)([…]) and human interleukin 10 (IL-10, Genzyme)([…]). The culture medium was supplied freshly to the cell suspension, and the mixture was further cultured for another week. The supernatant was sampled and the concentrations of IgE and IgG antibodies therein were measured by sandwich ELISA.\n(§4) The ELISA was based, for the assay of IgE antibodies, on the use of rabbit anti-human IgE() antibodies (ICN) as the primary antibody and biotin-linked anti-human IgE monoclonal antibodies (G7-26, PharMingen) as the secondary antibody. For the assay of IgG antibodies, anti-human IgG monoclonal antibodies (G18-145, PharMingen) and biotin-linked donkey anti-human IgG antibodies (H+L)(Jackson) were used for the primary and secondary antibodies, respectively. For the assay of both IgE and IgG antibodies, Avidin-Biotin-Horse Radish Peroxidase (ABC kit, Vector Lab) and TMB (3,3',5,5'-tetramethylbenzidine) microwell peroxidase substrate system (Kirkegaard & Perry Laboratories Inc.) were used as the enzyme and the substrate, respectively. The assays were made by the use of conventionally known ELISA.\n(§5) The inhibitory effect (%) of a given compound of this invention on the production of the antibody was calculated with respect to the concentration of the same antibody when the compound was not coexistent (refer to Uejima et al., American Academy of Allergy and Immunology, Proceedings of 1995 Annual Meeting, Program No. 818)."}, "human IgG antibodies": {"tested_on": "human IgG antibodies", "experiment": "In vitro inhibition of human IgG antibody production (lymphocytes + IL-4 + anti CD40Ab + IL-10, ELISA)", "type": "cell-based", "settings": "Lymphocyte", "experimental": "as §2, §3, §4, §5"}, "IgM": {"tested_on": "IgM", "experiment": "In vivo inhibition of IgM production in TNP-KLH immunized mice", "parameters": "species or system BDF1 mice", "settings": "100 mg/kg/day subcutaneously, twice a day for 10 days, N=10", "experimental": "as §1"}, "[1]": {"tested_on": "leukotrien B4 (LTB4) production", "experiment": "Inhibition of leukotrien B4 (LTB4) production in RBL-1 basophils", "type": "cell-based", "settings": "Rattus norvegicus; RBL-1 cells, calcium ionophore A23187", "experimental": "The basophils from rats of RBL-1 line (Dainippon Pharmaceutical Co.) cultured on DMEM (Dulbecco's modified Eagle medium) containing 10% FCS suspended in 10 mM HEPES-NaOH buffer (pH 7.4), 90 mM NaCl, 3.7 mM KCl, 0.9 mM CaCl2, 5.6mM glucose, and the compound of this invention listed in Table 8 as a test drug, to give a suspension of a density of 2×10^6 cells/ml. The suspension was allowed to stand at 37 for 5 minutes, and calcium ionophores A23187 were added thereto in such a manner that the concentration of […] was obtained in the end. The reaction was allowed to proceed at 37 for 10 minutes, and the supernatant was sampled for the ELISA assay (Cayman Chemical, Catalog No. 520111, and J. Immunol., 119:618-622, 1977) of leukotrien B4 (LTB4). IC50 of a given compound of this invention for inhibition of leukotrien production was calculated relative to the production of LTB4 when the compound was not coexistent."}}}
{"molecule": "O=C(Nc1ccccc1C(=O)O)c1ccc(Oc2ccc3ccccc3c2)cc1", "note": "[Compound No. 1104, 2-(4-(2-naphtyloxy)benzamide)benzoic Acid]", "values": [{"measurement": "Inhibition of antibody production (%) IgG1", "setting": "IgG1", "value": 24.4, "unit": "%"}, {"measurement": "Inhibition of histamine release (%)", "setting": "human basophils", "value": 20.4, "unit": "%"}, {"measurement": "Inhibition of antibody production (%) IgE", "setting": "IgE", "value": 60.4, "unit": "%"}, {"measurement": "inhibition at 1 µM", "setting": "human IgE antibodies", "value": 35.9, "unit": "%"}, {"measurement": "inhibition at 3 µM", "setting": "human IgE antibodies", "value": 85.6, "unit": "%"}, {"measurement": "inhibition at 10 µM", "setting": "human IgE antibodies", "value": 98.2, "unit": "%"}, {"measurement": "inhibition at 1 µM", "setting": "human IgG antibodies", "value": -4.7, "unit": "%"}, {"measurement": "inhibition at 3 µM", "setting": "human IgG antibodies", "value": -6.2, "unit": "%"}, {"measurement": "inhibition at 10 µM", "setting": "human IgG antibodies", "value": 20.5, "unit": "%"}, {"measurement": "Inhibition of antibody production (%) IgM", "setting": "IgM", "value": 56.1, "unit": "%"}, {"measurement": "IC50", "setting": "[1]", "value": 210, "unit": "nM"}]}
{"molecule": "O=C(Cc1ccc(Oc2ccc3ccccc3c2)cc1)Nc1ccccc1C(=O)O", "note": "[Compound No. 1126, 2-(4-(2-naphtyloxy)phenylacetamide)benzoic acid]", "values": [{"measurement": "Inhibition of antibody production (%) IgG1", "setting": "IgG1", "value": 46.8, "unit": "%"}, {"measurement": "Inhibition of histamine release (%)", "setting": "human basophils", "value": 55.8, "unit": "%"}, {"measurement": "Inhibition of antibody production (%) IgE", "setting": "IgE", "value": 78.9, "unit": "%"}, {"measurement": "inhibition at 1 µM", "setting": "human IgE antibodies", "value": 63.9, "unit": "%"}, {"measurement": "inhibition at 3 µM", "setting": "human IgE antibodies", "value": 93.5, "unit": "%"}, {"measurement": "inhibition at 10 µM", "setting": "human IgE antibodies", "value": 97.9, "unit": "%"}, {"measurement": "inhibition at 1 µM", "setting": "human IgG antibodies", "value": -5, "unit": "%"}, {"measurement": "inhibition at 3 µM", "setting": "human IgG antibodies", "value": 35.4, "unit": "%"}, {"measurement": "inhibition at 10 µM", "setting": "human IgG antibodies", "value": 84, "unit": "%"}, {"measurement": "Inhibition of antibody production (%) IgM", "setting": "IgM", "value": 70.2, "unit": "%"}, {"measurement": "IC50", "setting": "[1]", "value": 600, "unit": "nM"}]}
